Results taken from patent publication US12171813B2, “Methods of and compositions for reducing gene expression and/or activity” (Christiana Care Gene Editing Institute, Inc., priority 2021, dated 2024).

Test system: NFE2L2 gene
Assay: Screening of SureKill guide RNAs in the NFE2L2 gene for ability to induce indels
Type: cell-based, Human
Conditions: transfections of individual guide RNAs (spCas9 RNP); NCI-H1703 clone 44-25 cells; DECODR
Method: Human lung squamous cell carcinoma NCI-H1703 clone 44-25 cells were derived from NCI-H1703 cells (#CRL-5889) which were purchased from ATCC (Manassas, VA, USA). NCI-H1703 clone 44-25 cells contains R34G mutation (C 4 G) in NFE2L2 gene. H1703 clone 44-25 cells were cultured in ATCC formulation RPMI-1640 with 10% FBS. T75 flasks were used and cells were split 1:5 upon reaching 90% confluency. Human lung adenocarcinoma cells (Dist. Lot. No. LG0703-F948-PDC) were acquired from the National Institute of Health's National Cancer Institute's Patient-Derived Models Repository (PDMR). This PDMR cell line contains the L858R mutation (T 4 G) in the EGFR gene. The PDMR cells were maintained in Advanced DMEM/F12 media containing 10% FBS, 0.4 μg/mL hydrocortisone, 0.01 μg/mL EGF Recombinant Human Protein, 24 μg/mL adenine, and 2 mM L-Glutamine. T75s were used and cells were split 1:3 upon reaching 90% confluency. All cultures were maintained in cell culture incubators at 37° C. and 5% CO2.
Ribonucleoproteins (RNP) are complexed by incubating 250 pmol of purified synthetic gRNA (Synthego Corporation, Redwood City, CA) with 50 pmol of purified spCas9 (Synthego Corporation, Redwood City, CA) at room temperature in nuclease-free 1× TE buffer for 15 minutes.
Transfections were carried out using the Lonza Nuclefector 4d. Cultures in t75s at 90% confluence were split 1:2 24 hours prior to transfection. RNPs were complexed at 250:50 pmol for 30 minutes prior to transfection, during which time cells were harvested and counted. All reactions were 100 μL and contained 1 e6 cells. Lonza SF solution and Nucleofector program CM-130 were used in all transfections of the H1703 cell line. Lonza SE solution and Nucleofector program CA-137 were used in all transfections of the PDMR. After transfection, 500 μL of media that had been equilibrated to cell culture CO2 and temperature conditions was added to each 100 μL cuvettes. Cuvettes were then placed in the incubator. After 20 minutes, the entire content of each cuvette was seeded into 3 mL of media in a 6 well plate. After 72 hours, samples were dissociated using 200 μL Trypsin 0.25% for 5 minutes. 800 μL culture media was used to quench and split into 1.5 mL tubes each containing 500 μL of the sample. Tubes were spun at 300×g for 5 minutes. One of the tubes was placed in the −20° C. freezer and the other was resuspended in 500 μL of Trizol for RNA extraction and cDNA synthesis.
All sequencing was performed on the Applied Biosystems SeqStudio. The BigDye Terminator v3.1 Cycle Sequencing Kit was used to prepare samples for sequencing. Resulting sequences were analyzed with DECODR to determine indel rates (Bloh et al., CRISPR J. 4:120-31 (2021)).
In some cancers, human NRF2 contains a mutation, R34G, that creates a novel PAM site making it a targetable sequence by CRISPR. By combining the R34G-targeting CRISPR with another CRISPR of high efficiency in a downstream intronic region, exon skipping can be induced, resulting in a higher efficiency of functional knockout than the R34G targeting CRISPR alone. To find a suitable SureKill guide RNA (gRNA) to pair with the R34G targeting CRISPR, we selected the intron between exons 3 and 4 (FIG. 2). A series of gRNAs were created in this region and screened for their ability to induce indels, a measure of their activity (Table 2).
In Table 2, all sequences are listed from 5′ to 3′. Indel %, a measure of CRISPR activity, is based on transfections of individual guide RNAs. All guide RNAs, with the exception of R34G, were designed in the intron between exons 3 and 4.

“R34G gRNA: guide RNA GATATAGATCTTGGAGTAAG, SEQ ID NO:1, targets NRF2 R34G mutation (listed as DNA, chemistry not given here)” was tested, and the indel % was 83%.
